Reference: patent US20170014354A1, “ZEAXANTHIN FOR TUMOR TREATMENT” (The New York Eye and Ear Infirmary, priority 2012, published 2017)

Columns and labels:
Format in all cases: cell-based
[1] = tested on: DU-145; assay: MTT cell viability, DU-145 prostate cancer; conditions: 48 h, vs control
Procedure: (§1) Each malignant tumor cell line was cultured in Dulbecco's modified Eagle's medium (DMEM, GIBCO, Carlsbad, Calif.) supplemented with 10% fetal bovine serum (FBS, GIBCO). Cells were incubated in a humidified 5% CO2 atmosphere at 37° C. After reaching confluence, cells were detached by trypsin-EDTA solution (GIBCO), diluted 1:4-1:6, plated for subculture and were passaged routinely at a dilution of 1:4-1:6 every 4-6 days.
(§2) All cell lines were tested in triplicates.

[2] = tested on: HeLa; assay: MTT cell viability, HeLa cervix cancer; conditions: 48 h, vs control
Procedure: as §1, §2

[3] = tested on: NCI-H358; assay: MTT cell viability, NCI-H358 lung cancer; conditions: 48 h, vs control
Procedure: as §1, §2

[4] = tested on: Hep G2; assay: MTT cell viability, Hep G2 hepatocellular carcinoma; conditions: 48 h, vs control
Procedure: as §1, §2

[5] = tested on: OS143; assay: MTT cell viability, OS143 osteosarcoma; conditions: 48 h, vs control
Procedure: as §1, §2

[6] = tested on: SCC1; assay: MTT cell viability, SCC1 cutaneous squamous carcinoma; conditions: 48 h, vs control
Procedure: as §1, §2

[7] = tested on: OCM2; assay: MTT cell viability, OCM2 uveal melanoma; conditions: 48 h, vs control
Procedure: as §1, §2

[8] = tested on: PANC-1; assay: MTT cell viability, PANC-1 pancreatic cancer; conditions: for Cell viability: 48 h, MTT, vs control
Procedure: as §1, §2

[9] = tested on: NCI-H820; assay: MTT cell viability, NCI-H820 lung cancer; conditions: 48 h, vs control
Procedure: as §1, §2

[10] = tested on: SP6.5; assay: Phase-contrast microscopy of treated uveal melanoma cells; conditions: SP6.5, 0, 30 and 100 μM zeaxanthin, 48 hr, 24-well plates
Procedure: FIGS. 2A, 2B and 2C illustrate the phase-contrast photomicrographs of uveal melanoma cells which have been treated with three different concentrations of zeaxanthin. Uveal melanoma cells (SP6.5 cell line) were seeded into 24-well plates and treated with zeaxanthin at 0 μM (2A), 30 μM (2B), and 100 μM (2C) levels for 48 hr.
Viability of cells treated with zeaxanthin was also visualized in the following tests. In these tests, the same amount of uveal melanoma cells were cultured and treated with zeaxanthin at different concentrations, and the treated cells were examined under microscope. Specifically, the uveal melanoma cell line SP6.5 was seeded into 24-well plates and treated with zeaxanthin at final concentrations of 0 μM, 30 μM, and 100 μM for 48 hr. […] The number of cells alive in FIG. 2A is more than that in FIG. 2B, which in turn is more than that in FIG. 2C.

[11] = tested on: A549; assay: MTT cell viability, A549 lung cancer; conditions: for Cell viability: 48 h, MTT, vs control
Procedure: as §1, §2

CC1=C(/C=C/C(C)=C/C=C/C(C)=C/C=C/C=C(C)/C=C/C=C(C)/C=C/C2=C(C)C[C@@H](O)CC2(C)C)C(C)(C)C[C@H](O)C1 [zeaxanthin]
Cell viability ([1]; DU-145, 10 μM zeaxanthin): 78 ± 5.0% | Cell viability ([1]; DU-145, 30 μM zeaxanthin): 65 ± 5.5% | Cell viability ([2]; 10 μM zeaxanthin): 66 ± 3.3% | Cell viability ([2]; 30 μM zeaxanthin): 46 ± 1.6% | Cell viability ([2]; 100 μM zeaxanthin): 7.9 ± 2.0% | Cell viability ([3]; NCI-H358, 10 μM zeaxanthin): 80 ± 3.5% | Cell viability ([3]; NCI-H358, 30 μM zeaxanthin): 65 ± 3.0% | Cell viability ([3]; NCI-H358, 100 μM zeaxanthin): 37 ± 1.3% | Cell viability ([4]; Hep G2, 10 μM zeaxanthin): 79 ± 3.7% | Cell viability ([4]; Hep G2, 30 μM zeaxanthin): 58 ± 1.8% | Cell viability ([4]; Hep G2, 100 μM zeaxanthin): 32 ± 1.2% | Cell viability ([5]; OS143, 10 μM zeaxanthin): 82 ± 5.0% | Cell viability ([5]; OS143, 30 μM zeaxanthin): 78 ± 3.4% | Cell viability ([5]; OS143, 100 μM zeaxanthin): 42 ± 1.3% | Cell viability ([6]; SCC1, 10 μM zeaxanthin): 80 ± 3.5% | Cell viability ([6]; SCC1, 30 μM zeaxanthin): 65 ± 2.9% | Cell viability ([6]; SCC1, 100 μM zeaxanthin): 13 ± 1.4% | Cell viability ([7]; OCM2, 10 μM zeaxanthin): 90 ± 4.9% | Cell viability ([7]; OCM2, 30 μM zeaxanthin): 70 ± 2.1% | Cell viability ([7]; OCM2, 100 μM zeaxanthin): 46 ± 2.0% | final concentration at which cell viability decreased significantly ([8]; PANC, vs cells without zeaxanthin): ≥ 100 µM | Cell viability ([8]; PANC-1, 10 μM zeaxanthin): 101 ± 6.0% | Cell viability ([8]; PANC-1, 30 μM zeaxanthin): 98 ± 5.5% | Cell viability ([8]; PANC-1, 100 μM zeaxanthin): 76 ± 5.1% | Cell viability ([9]; NCI-H820, 10 μM zeaxanthin): 76 ± 4.5% | Cell viability ([9]; NCI-H820, 30 μM zeaxanthin): 68 ± 3.1% | Cell viability ([9]; NCI-H820, 100 μM zeaxanthin): 38 ± 1.7% | number of cells seen under microscope [10]: the number of cells in the culture that could be seen under microscope decreased progressively | Cell viability ([11]; A549, 10 μM zeaxanthin): 94 ± 6.6% | Cell viability ([11]; A549, 30 μM zeaxanthin): 86 ± 4.4% | Cell viability ([11]; A549, 100 μM zeaxanthin): 67 ± 6.1% | final concentration at which cell viability decreased significantly ([11]; A549, vs cells without zeaxanthin): ≥ 100 µM
